Experiments:
acid secretion = assay: VOL, TAO: Acid Secretion Inhibition Test In Vivo; parameters: species or system rat (male Crj:Donryu); settings: rat; for TAO: total acid output inhibitory rate / VOL: gastric juice volume inhibitory rate: 100 mg/kg oral, histamine-stimulated, pylorus ligated; for gastric acid secretion inhibition effect (in words): in vivo
Procedure: VOL, TAO: Acid Secretion Inhibition Test In Vivo
Inhibitory effect on acid secretion in vivo is confirmed.
Male Crj:Donryu rats (7-week-old) were fasted overnight but allowed free access to water. In each group, 8 to 10 of these rats were used under urethane anesthesia (1.25 g/kg). The sample compound dissolved or suspended in an aqueous solution of 0.5% sodium carboxymethylcellulose or 0.05% Tween 80 was orally administered (100 mg/10 ml/kg). 30 minutes later, the abdomen of each was incised and the pylorus was ligated. 30 minutes after the ligation, 30 mg/kg of histamine dissolved in physiological saline were subcutaneously administered and, 3 hours thereafter, the rat was sacrificed with carbon dioxide. Immediately thereafter, each stomach was removed and the gastric contents were collected and each volume was determined. The total acid output was determined by titration of the gastric juice with 0.1N NaOH.
With respect to the gastric juice volume (VOL) and the total acid output (TAO), the effects obtained when 100 mg/kg of the sample compound had been administered were expressed as their respective inhibitory rates (%) as follows:
each inhibitory rate (%)=[1-(value in sample group/value in control group)]×100

gastric mucosa = assay: PD: Gastric Mucosal Integrity Test; type: in vivo, rat (male Crj:SD); settings: rat, 100 mg/kg into ex vivo chamber, 60 minutes
Procedure: PD: Gastric Mucosal Integrity Test
In this case, since the sample compound has a necrotizing effect, it is inappropriate as an anti-ulcer medicament.
Therefore, the gastric mucosal potential difference (PD), which reflects the integrity of the gastric mucosa, is measured so as to confirm that the sample compound has no damasing effect on gastric mucosa, which is toxicity at gastric mucosal level.
Male Crj:SD rats (7 to 8-week-old) was fasted overnight, but allowed free access to water, and then, under urethane anesthesia (1.25 g/kg, i.p.), fixed to a cork board on its back. The abdomen of each rat was incised, and a small incision was made in the forestomach. Then, the inside of the stomach was washed with physiological saline heated at 37° C. From the forestomach, along the greater curvature thereof, the stomach was incised without damaging blood vessels. After the height of the cork board was adjusted on a jack, the stomach was mounted on ex vivo chamber. The area of the gastric mucosa exposed to the inside of this chamber was 2.5 cm^2. The inside of the chamber was perfused with physiological saline warmed at 37° C. by micro tube pump. By using an agar bridge containing 3M KCl, the potential difference between the chamber and the abdominal cavity was measured by a PD meter. Here, the rectal temperature was measured to control the body temperature during the experiment. After the PD was sufficiently stabilized, the perfusate was stopped and then 100 mg/10 ml/kg of the sample compound dissolved or suspended in an aqueous solution of 0.5% sodium carboxymethyl cellulose or 0.05% Tween 80 were administered into the chamber, while PD was recorded for 60 minutes. To a control, the vehicle was administered.
The change in PD during 60 minutes after the administration of 100 mg/kg of the sample compound was collectively studied and, with reference to the positive control, classified into 5 levels as follows:
5: Same as the control with no recognizable damage at all.
3: Though a weak decrease in PD and a possibility of a weak mucosal damage is recognized, there is no substantial problem.
2: Medium degree of decrease in PD is found and a mucosal damage is recognized.
1: Heavy degree of decrease in PD is found and a remarkable mucosal damage is recognized.

[1] = test system: gastric corpus mucosa cells; assay: MTT: Cell Damaging and Protecting Effect Test; type: cell-based, rabbit (male Japanese White); settings: final concentration 10^-4 M, 4 hours; smaller value is better; 100 µM
From the text: MTT: Cell Damaging and Protecting Effect Test
It is confirmed that there is no toxicity in cell level. Those having a toxicity in cell level are inappropriate as an anti-ulcer drug.
A male Japanese White rabbit (2.5 to 3 kg) was anesthetized to death by Nembutal™ and, immediately thereafter, its stomach was removed. The greater curvature of the stomach was incised so as to remove the stomach contents therefrom. After the mucosal surface was washed with HBSS (Hanks' Balanced Salt Solution), the stomach in ice-cooled HBSS was transferred to a laboratory. Then, after the pyloric antrum was removed, the gastric corpus mucosa was separated by a spatula and then minced into 2 to 3 mm^3 pieces in BME (Basal Medium Eagle). Thereafter, these pieces were shaken at 120 to 130 cycles/minute for 15 minutes at 37° C. in BME 60ml containig 280 U/ml of dispase and 30 to 50 U/ml of collagenase. Here, the concentration of collagenase was appropriately changed for each lot in view of the state of cells. The pieces were washed twice with EBSS (Earle's Balanced Salt Solution) containing 1 mM of EDTA and then shaken in MEM (Minimum Essential Medium) containing 1 mM of EDTA at 37° C. for 5 minutes. Subsequently, they were shaken in the dispase and collagenase having the same concentrations as those mentioned above for 15 minutes so as to remove the supernatant and then further shaken at 37° C. for 50 to 60 minutes at 120 to 130 cycles/minute. Then, after being washed twice with HBSS, Ham F12 containing 2% of Ultrocer G™ was used to attain the concentration of 1×10^6 cells/ml. Thus formed suspension was dispensed in each well of a 96-well plate by 200 μl. The plate was incubated in the atmosphere composed of 5% CO2 and 95% air at 37° C. for three days so as to attain a confluent state and then subjected to MTT assay.
The sample compound was dissolved in DMSO so as to attain a concentration of 10^-2 M and then diluted with HBSS containing 2% of Ultrocer G™ so as to attain a final concentration of 10^-4 M. To each group, which 8 wells were used for, 10 μl of MTT reagent were added immediately after 100 μl of the medium in each well were exchanged for same volume of the resulting solution of the sample compound. After being incubated in an atmosphere composed of 5% CO2 and 95% air at 37° C. for 4 hours, thus formed solution was centrifuged and then its supernatant was discarded. Subsequently, 100 μl of 100% ethanol were added to the residue so as to dissolve MTT formazan. Then, the absorbance (OD: 570 to 630) was measured by a microplate reader. This method utilizes a phenomenon in which MTT is changed to MTT formazan only by mitochondria of living cells so as to change color.
The cell damaging or cell protecting effect of the sample compound at the final concentration of 10^-4 M was expressed as cell damaging rate (%) as follows:
cell damaging rate (%)=[1-(absorbance in sample group/absorbance in control group)]×100
Accordingly, the smaller value is better in the cell damaging rate.

| SMILES | PD: change in gastric mucosal potential difference, level (gastric mucosa) | MTT: cell damaging rate [1] [%] | TAO: total acid output inhibitory rate (acid secretion) [%] | VOL: gastric juice volume inhibitory rate (acid secretion) [%] | gastric acid secretion inhibition effect (in words) (acid secretion) |
| --- | --- | --- | --- | --- | --- |
| CC(C)Cc1cc(C(=O)N2CCN(CC(C)C)CC2)ccc1OCc1ccc(F)cc1 [Example 21, 1-[4-(4-fluorobenzyloxy)-3-isobutylbenzoyl]-4-isobutylpiperazine] | 5 | -65 | 35 | 9 | improved |
| CC(C)Cc1cc(C(=O)N2CCN(CC(C)C)CC2)ccc1OCc1ccc(F)cc1F.Cl [Example 24, 1-[4-(2,4-difluorobenzyloxy)-3-isobutylbenzoyl]-4-isobutylpiperazine hydrochloride] | 2 | -126 | 33 | 7 |  |
| CC(C)Cc1cc(C(=O)N2CCN(CC(C)C)CC2)ccc1OCc1ccccc1F.Cl [Example 19, 1-[4-(2-fluorobenzyloxy)-3-isobutylbenzoyl]-4-isobutylpiperazine hydrochloride] | 2 | -55 | 42 | 6 |  |

Second part, led by results:

| PD: change in gastric mucosal potential difference, level (gastric mucosa) | MTT: cell damaging rate [1] [%] | SMILES | TAO: total acid output inhibitory rate (acid secretion) [%] | VOL: gastric juice volume inhibitory rate (acid secretion) [%] | gastric acid secretion inhibition effect (in words) (acid secretion) |
| --- | --- | --- | --- | --- | --- |
| 5 | -4 | CC(C)Cc1cc(C(=O)N2CCN(CC(C)C)CC2)ccc1OCc1ccc(F)cc1.Cl [Example 22, 1-[4-(4-fluorobenzyloxy)-3-isobutylbenzoyl]-4-isobutylpiperazine hydrochloride] | 22 | 10 | improved |
| 2 | -6 | CC(C)CN1CCN(C(=O)c2ccc(OCc3ccc(F)cc3)cc2)CC1.Cl [Example 2, 1-[4-(4-fluorobenzyloxy)benzoyl]-4-isobutylpiperazine hydrochloride] |  |  |  |
